Structures can show the parent of a compound that is named as a salt.

In one assay the target is T1, Human GlyT1c (Homo sapiens, UniProt P48067).
T1 construct: expressed in transfected cells; host or cells: CHO (hGlyT1c_5_CHO clone)
T1 sequence (P48067 1-706): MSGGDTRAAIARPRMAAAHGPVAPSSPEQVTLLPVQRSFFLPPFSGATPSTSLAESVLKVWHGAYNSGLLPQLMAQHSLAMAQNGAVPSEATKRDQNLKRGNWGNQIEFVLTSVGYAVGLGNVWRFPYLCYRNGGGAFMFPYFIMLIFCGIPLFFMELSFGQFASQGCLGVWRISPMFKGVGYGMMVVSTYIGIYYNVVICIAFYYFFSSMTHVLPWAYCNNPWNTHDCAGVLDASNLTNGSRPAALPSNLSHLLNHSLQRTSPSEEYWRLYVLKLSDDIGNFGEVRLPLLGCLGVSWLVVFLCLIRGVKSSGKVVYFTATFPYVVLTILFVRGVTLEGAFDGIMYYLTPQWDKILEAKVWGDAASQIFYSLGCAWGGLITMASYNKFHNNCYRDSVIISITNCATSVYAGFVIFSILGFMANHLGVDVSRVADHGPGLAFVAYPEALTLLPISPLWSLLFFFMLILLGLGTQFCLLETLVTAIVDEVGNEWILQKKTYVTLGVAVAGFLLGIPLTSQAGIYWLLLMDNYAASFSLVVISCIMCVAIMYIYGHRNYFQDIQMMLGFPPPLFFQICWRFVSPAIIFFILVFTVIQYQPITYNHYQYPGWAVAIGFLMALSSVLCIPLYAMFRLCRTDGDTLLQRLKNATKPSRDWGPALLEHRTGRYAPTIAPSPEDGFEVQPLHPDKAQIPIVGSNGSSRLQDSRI
The assay can be described thus: Glycine uptake in recombinant hGlyT1 expressing cells. Format: cell-based. The following applies: hGlyT1c_5_CHO cells; [3H]-glycine uptake, 60-120 min. The procedure:
1. Glycine Uptake in Recombinant hGlyT1 Expressing Cells:
Human GlyT1c expressing recombinant hGlyT1c—5_CHO cells were plated at 20,000 cells per well in 96 well Cytostar-T scintillation microplates (Amersham Biosciences) and cultured to sub-confluency for 24 h. For glycine uptake assays the culture medium was aspirated and the cells were washed once with 100 μl HBSS (Gibco BRL, #14025-050) with 5 mM L-Alanine (Merck #1007). 80 μl HBSS buffer were added, followed by 10 μl inhibitor or vehicle (10% DMSO) and 10 μl [^3H]-glycine (TRK71, Amersham Biosciences) to a final concentration of […] for initiation of glycine uptake. The plates were placed in a Wallac Microbeta (PerkinElmer) and continuously counted by solid phase scintillation spectrometry during up to 3 hours. Nonspecific uptake was determined in the presence of 10 μM Org24598. IC50 calculations were made by four-parametric logistic nonlinear regression analysis (GraphPad Prism) using determinations within the range of linear increase of [^3H]-glycine incorporation between 60 and 120 min.

Another assay addresses T2, human GlyT1c transporter (Homo sapiens, UniProt P48067).
T2 construct: expressed in transfected cells; host or cells: recombinant hGlyT1-expressing cells
T2 sequence (P48067 1-706): T1 sequence (P48067 1-706)
The assay can be described thus: [3H]-(R)-NPTS radioligand binding assay using recombinant hGlyT1 expressing cell membranes. The following applies: 0.5 nM [3H]-(R)-NPTS, apparent Ki via Cheng-Prusoff, read-out: [3H]-(R)-NPTS bindung Ki. The procedure:
2. [^3H]-(R)-NPTS Radioligand Binding Assays using Recombinant hGlyT1 Expressing Cell Membranes:
Radioligand binding to human GlyT1c transporter-expressing membranes was measured in duplicate in a total volume of 200 μl in 96-well plates. To 100 μl of membrane suspension (yielding a final membrane protein concentration of 50 μg/ml) in assay buffer (120 mM NaCl, 2 mM KCl, 10 mM Hepes, 1 mM MgCl2, 1 mM CaCl2, pH 7.5) […] of [^3H]-(R)NPTS (0.5 nM final) were added in assay buffer. For competition experiments 10 μl of buffer or unlabeled compound solution obtained from dilution series of test compounds in DMSO followed. An intermediate 1:10 dilution in assay buffer yielded a final DMSO concentration of 1%. Non-specific binding was determined in the presence of 10 μM Org24598 (or its racemate Org24461) for [^3H]-(R)-NPTS. After incubation at room temperature for 1 h, the incubation mixture was harvested (Tomtec Mach III U Harvester) through 96-well GF/B filter plates (PerkinElmer), presoaked for 1 h with 40 μl per well of 0.1% polyethylene-imine (PEI). After washing twice with ice-cold 50 mM Tris-HCl pH 7.4 buffer, drying and addition of 35 μl scintillator (BetaplateScint, PerkinElmer) per well followed. The radioactivity was determined by liquid scintillation spectrometry in a MicroBeta (PerkinElmer) plate counter.
Data analysis: For binding of [^3H]-(R)-NPTS to cell membranes, the calculation of Kd and Bmax values from the saturation binding assays and the IC50 values from the displacement binding was performed by iterative non-linear regression analysis adapted from the ‘Ligand’ program (Munson and Rodbard, 1980). Radioligand displacement curves in absence or in presence of increasing concentrations of tested compounds were fitted using a one-site fit and the apparent Ki values were calculated from the IC50 values using the Cheng-Prusoff equation (Cheng and Prusoff 1973).

The term IC50 denotes the midpoint of a concentration-inhibition curve. As to `Cc1cc(NCc2ccc(Cl)c(Cl)c2)c2cccc(OCCNC(=O)C(C)C)c2n1` [Example 26, N-{2-[4-(3,4-Dichlorobenzylamino)-2-methylquinolin-8-yloxy]-ethyl}-isobutyramide], the IC50 on Human GlyT1c is ≤ 1000 nM. The Ki at human GlyT1c transporter is ≤ 1000 nM.
With `CCS(=O)(=O)NCCOc1cccc2c(NCc3ccc(Cl)c(Cl)c3)cc(C)nc12` [Example 27, Ethanesulfonic {2-[4-(3,4-Dichloro-benzylamino)-2-methylquinolin-8-yloxy]-ethyl}-amide], at Human GlyT1c, the IC50 is ≤ 10 nM. For the same compound, the Ki at human GlyT1c transporter is ≤ 10 nM.
`Cc1cc(NCc2ccc(Cl)c(Cl)c2)c2cccc(OCCNS(=O)(=O)c3ccc4ccccc4c3)c2n1` [Example 28, Naphthyl-2-sulfonic {2-[4-(3,4-dichlorobenzylamino)-2-methylquinolin-8-yloxy]-ethyl}-amide]: the IC50 on Human GlyT1c is ≤ 1000 nM. Also, the Ki on human GlyT1c transporter is ≤ 100 nM.
For `Cc1cc(NCc2ccc(Cl)c(Cl)c2)c2cccc(OCCNS(=O)(=O)C(F)(F)F)c2n1` [Example 29, N-{2-[4-(3,4-Dichlorobenzylamino)-2-methylquinolin-8-yloxy]-ethyl}-C,C,C-trifluoromethanesulfonamide], on Human GlyT1c, the IC50 was ≤ 100 nM. Also, the Ki on human GlyT1c transporter is ≤ 100 nM.
As for `Cc1cc(NCc2ccc(Cl)c(Cl)c2)c2cccc(OCCNS(=O)(=O)c3cccnc3)c2n1` [Example 30, Pyridine-3-sulfonic {2-[4-(3,4-dichlorobenzylamino)-2-methylquinolin-8-yloxy]-ethyl}amide], the IC50 at Human GlyT1c was ≤ 100 nM. Also, the Ki on human GlyT1c transporter is ≤ 10 nM.
Consider `Cc1cc(NCc2ccc(Cl)c(Cl)c2)c2cccc(OCCNS(=O)(=O)CC(C)C)c2n1` [Example 31, 2-Methylpropane-1-sulfonic {2-[4-(3,4-dichlorobenzylamino)-2-methylquinolin-8-yloxy]-ethyl}-amide], for which the IC50 at Human GlyT1c is ≤ 100 nM. Further, the Ki at human GlyT1c transporter is ≤ 10 nM.
With `Cc1cc(NCc2ccc(Cl)c(Cl)c2)c2cccc(OCCNS(=O)(=O)Cc3ccccc3)c2n1` [Example 32, N-{2-[4-(3,4-Dichloro-benzylamino)-2-methylquinolin-8-yloxy]-ethyl}-C-phenyl-methanesulfonamide], on Human GlyT1c, the IC50 was ≤ 1000 nM. The Ki at human GlyT1c transporter was ≤ 100 nM.
Consider `C=CCN1CCCC[C@H]1[C@@H](Nc1cc(C)nc2c(OCCNC(=O)OC(C)(C)C)cccc12)c1ccccc1` [Example 33, [2-(4-{[(S)—((S)-1-Allyl-piperidin-2-yl)-phenylmethyl]-amino}-2-methylquinolin-8-yloxy)ethyl]-carbamate tert-butyl ester], for which the IC50 at Human GlyT1c was ≤ 10000 nM. For the same compound, on human GlyT1c transporter, the Ki is ≤ 10000 nM.
For the compound `C=CCN1CCCC[C@H]1[C@@H](Nc1cc(C)nc2c(OCCN)cccc12)c1ccccc1` [Example 34, [(S)—((S)-1-Allylpiperidin-2-yl)-phenylmethyl]-[8-(2-aminoethoxy)-2-methylquinolin-4-yl]-amine], the IC50 at Human GlyT1c was ≤ 100000 nM. The Ki at human GlyT1c transporter was ≤ 10000 nM.
Take `C=CCN1CCCC[C@H]1[C@@H](Nc1cc(C)nc2c(OCCNS(C)(=O)=O)cccc12)c1ccccc1` [Example 35, N-[2-(4-{[(S)—((S)-1-Allylpiperidin-2-yl)-phenylmethyl]-amino}-2-methylquinolin-8-yloxy)ethyl]methanesulfonamide]: the IC50 on Human GlyT1c is ≤ 10000 nM. Further, the Ki on human GlyT1c transporter is ≤ 10000 nM.
As to `Cc1cc(NCc2ccc(Cl)cc2Cl)c2cccc(OCCN)c2n1` [Example 36, [8-(2-Aminoethoxy)-2-methylquinolin-4-yl]-(2,4-dichlorobenzyl)-amine], the half-inhibitory concentration (IC50) at Human GlyT1c is ≤ 10000 nM. On human GlyT1c transporter, the Ki is ≤ 100 nM.
As to `Cc1cc(N[C@@H](c2ccccc2)[C@@H]2CCCCN2)c2cccc(OCCNS(C)(=O)=O)c2n1` [Example 37, N-(2-{2-Methyl-4-[((S)-phenyl-(S)-piperidin-2-yl-methyl)-amino]-quinolin-8-yloxy}-ethyl)methanesulfonamide dihydrochloride], on Human GlyT1c, the IC50 is ≤ 1000 nM. The Ki on human GlyT1c transporter is ≤ 100 nM.
On the same counts, the results for `Cc1cc(NCc2ccc(Cl)cc2Cl)c2cccc(OCCNS(C)(=O)=O)c2n1` [Example 38, N-{2-[4-(2,4-Dichlorobenzylamino)-2-methylquinolin-8-yloxy]-ethyl}-methanesulfonamide] are ≤ 1000 nM and ≤ 100 nM.
Consider `Cc1cc(NCc2ccc(Cl)cc2Cl)c2cccc(OCCNS(=O)(=O)CC(C)C)c2n1` [Example 39, 2-Methylpropane-1-sulfonic {2-[4-(2,4-dichlorobenzylamino)-2-methylquinolin-8-yloxy]-ethyl}-amide], for which, at Human GlyT1c, the IC50 was ≤ 1000 nM. For the same compound, the Ki at human GlyT1c transporter is ≤ 100 nM.
Consider `Cc1cc(N[C@@H](c2ccccc2)[C@@H]2CCCCN2)c2cccc(OCCNS(=O)(=O)c3cccnc3)c2n1` [Example 40, Pyridin-3-sulfonic (2-{2-methyl-4-[((S)-phenyl-(S)-piperidin-2-yl-methyl)-amino]-quinolin-8-yloxy}-ethyl)-amide dihydrochloride], for which, at Human GlyT1c, the IC50 was ≤ 10000 nM. Also, the Ki on human GlyT1c transporter was ≤ 100 nM.
Take `Cc1cc(NCc2ccc(Cl)c(Cl)c2)c2cccc(O)c2n1` [Example 41, 4-(3,4-Dichlorobenzylamino)-2-methylquinolin-8-ol]: the IC50 on Human GlyT1c is ≤ 1000 nM. For the same compound, the Ki on human GlyT1c transporter is ≤ 100 nM.
For `Cc1cc(NCc2ccc(Cl)c(Cl)c2)c2cccc(OC(C)C)c2n1` [Example 42, (3,4-Dichlorobenzyl)-(8-isopropoxy-2-methylquinolin-4-yl)-amine hydrochloride], the IC50 at Human GlyT1c was ≤ 100 nM. The Ki on human GlyT1c transporter was ≤ 100 nM.
In the case of `CCCOc1cccc2c(NCc3ccc(Cl)c(Cl)c3)cc(C)nc12` [Example 43, (3,4-Dichlorobenzyl)-(2-methyl-8-propoxyquinolin-4-yl)-amine], at Human GlyT1c, the IC50 was ≤ 1000 nM. Further, the Ki at human GlyT1c transporter is ≤ 100 nM.
Turning to `Cc1cc(NCc2ccc(Cl)c(Cl)c2)c2cccc(Oc3ccccc3)c2n1` [Example 44, (3,4-Dichlorobenzyl)-(2-methyl-8-phenoxyquinolin-4-yl)-amine], the IC50 at Human GlyT1c was ≤ 1000 nM. At human GlyT1c transporter, the Ki was ≤ 1000 nM.
Take `CCCOc1cccc2c(NCc3ccc(C(F)(F)F)c(Cl)c3)cc(C)nc12` [Example 45, (3-Chloro-4-trifluoromethylbenzyl)-(2-methyl-8-propoxyquinoline-4-yl)-amine hydrochloride]: the IC50 at Human GlyT1c is ≤ 10000 nM. On human GlyT1c transporter, the Ki was ≤ 10000 nM.
Take `Cc1cc(NCc2ccc(Cl)c(Cl)c2)c2cccc(OCc3ccccc3)c2n1` [Example 46, (8-Benzyloxy-2-methylquinolin-4-yl)-(3,4-dichlorobenzyl)-amine]: on Human GlyT1c, the IC50 was ≤ 1000 nM. For the same compound, the Ki on human GlyT1c transporter is ≤ 100 nM.
In the same order, the values of `Cc1cc(NCc2ccc(Cl)c(Cl)c2)c2cccc(OCCn3cccn3)c2n1` [Example 47, (3,4-Dichlorobenzyl)-[2-methyl-8-(2-pyrazol-1-yl-ethoxy)-quinolin-4-yl]-amine hydrochloride] are ≤ 1000 nM and ≤ 100 nM.

The record behind these values is US8420670B2 (Abbott Laboratories, priority 2007, dated 2013).
